Reference: patent US11879001B2, “Conjugate comprising an IL-2 moiety” (ASCENDIS PHARMA ONCOLOGY DIVISION A/S, priority 2020, dated 2024)
Several values for one entry are separate records, joined by “and”; a condition that tells them apart may be missing. Equal entries are not always repeated. Blank lines part the entries; values can stand above or below the substance they belong to.

What was measured:
[1] = system: pSTAT5 in Tregs, CD8+ T cells, NK cells; test: pSTAT5 in lymphocyte subsets of whole cynomolgus monkey blood (flow cytometry); type: cell-based
Method: (§1) To evaluate the cell type specific immunostimulatory effects of 3 in primary human or monkey cells, whole human or cynomolgus monkey blood from two donors each was incubated with various concentrations of 3 or 13 for 30 minutes and analyzed by flow cytometry for intracellular levels of phosphorylated STAT5 (pSTAT5) in unique cell subsets such as Tregs which predominately express IL-2Rα/β/γ as well as CD8+ T cells (CD8) and NK cells which predominately express IL-2Rβ/γ. Additionally, CD8^+ T cells were further analyzed for CD8^+ CD45RA^+ Naïve (CD8 N) as well as CD8^+ CD45RA^− Memory (CD8 M) subsets. Similar experiments were performed with mouse blood using a different panel of mouse specific antibodies. All subsets were analyzed for median fluorescence intensities of pSTAT5 and EC50 values were calculated for each compound across all cell types.

[2] = system: pSTAT5 in Tregs, CD8+ T cells, NK cells; test: pSTAT5 in lymphocyte subsets of whole human blood (flow cytometry); type: cell-based
Method: as §1

[3] = system: pSTAT5 in Tregs, CD8+ T cells, NK cells; test: pSTAT5 in lymphocyte subsets of mouse blood (flow cytometry); type: cell-based
Method: [The source words this procedure for another organism and says it was used here with some conditions changed.] as §1, with “Similar experiments were performed with mouse blood using a different panel of mouse specific antibodies.” left out

IL-6 = test: Serum IL-6 cytokine levels (ELISA or MSD) in treated Cynos; type: in vivo, Cynomolgus macaques; details: ~0.044 mg/kg IV x5 daily
Method: (§2) Two studies were conducted to measure the pharmacodynamic effects of either Aldesleukin (Prometheus, National Drug Code 65483011607) (SEQ ID NO:15) 11 or 5 in Cynos. In the first study, four Cynos ranging in weight from 7.77-10.6 kg (average 9.2 kg) were treated intravenously with five sequential daily 0.4 mg doses of 11 on days 1-5 (average mg/kg: 0.044). In the second study, four Cynos ranging in weight from 2.46-3.69 kg (average 3.13 kg) were treated with a single intravenous dose of either 0.1 mg/kg (n=2) or 0.3 mg/kg (n=2) of 5. All animals were chair trained prior to the study. For both studies, peripheral blood samples were taken before and after treatment at various timepoints as indicated and analyzed for lymphocyte counts, eosinophil counts and cytokines. For animals treated with 5, additional flow cytometry experiments were performed. For measurements of (absolute) lymphocyte counts and eosinophil counts, whole blood was processed on hematology analyzers. For IL-5 and IL-6 cytokine measurements, serum was processed from whole blood and analyzed by ELISA or MSD. For flow cytometry measurements (Immunophenotyping, IPT, FACS), Cynomolgus monkey whole blood was collected in EDTA anticoagulant and kept at room temperature until processed for flow cytometry. Blood was lysed and samples were stained for extracellular surface markers and intracellular phenotypic and lineage markers by standard methods. Cell populations were analyzed using the following phenotypes and gated for percentage of cells which were positive for proliferation marker Ki67.

human IL-2Rα = target: T1, human IL-2Rα (Homo sapiens, UniProt P01589); test: Biacore binding to human IL-2Rα-Fc; details: independent measurement
T1 construct: purchased
T1 sequence (P01589 22-272): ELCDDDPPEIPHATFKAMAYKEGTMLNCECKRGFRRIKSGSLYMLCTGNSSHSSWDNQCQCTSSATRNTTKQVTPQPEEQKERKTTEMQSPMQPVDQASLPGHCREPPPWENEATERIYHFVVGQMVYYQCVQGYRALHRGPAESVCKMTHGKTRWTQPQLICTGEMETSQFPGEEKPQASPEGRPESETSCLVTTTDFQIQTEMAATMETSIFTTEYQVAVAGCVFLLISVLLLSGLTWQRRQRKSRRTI
Method: (§3) Binding affinity/kinetics needed to determine the KD of biased IL-2 to IL-2Rα, the KD of biased IL-2 to IL-2Rβ, the KD of aldesleukin to IL-2Rα and the KD of aldesleukin to IL-2Rβ may be assessed using surface plasmon resonance (SPR), measured on a Biacore instrument (GE Healthcare) as follows: A human Fc capture surface on a CM5 (or alternatively C1 or CM4) chip is prepared by covalent coating with anti-human Fc antibody or alternatively a protein A chip is used. Next, IL-2Rβ-Fc or IL2-Rα-Fc is immobilized on the chip. […] Analytes are each exposed to the receptor-modified chip for a suitable amount of time, such as for 1 to 30 minutes, which may for example be 2 minutes or may be 3 minutes and are then washed away for a suitable amount of time, such as 2 to 60 minutes, which may for example be 10 minutes. The resulting binding curves from the dilution series are fit to a 1:1 kinetic model to correlate observed response units (R) to the association and dissociation rate constants, ka and kd: […]

IL-5 = test: Serum IL-5 cytokine levels (ELISA or MSD) in treated Cynos; type: in vivo, Cynomolgus macaques; details: ~0.044 mg/kg IV x5 daily
Method: as §2, with “For flow cytometry measurements (Immunophenotyping, IPT, FACS), Cynomolgus monkey whole blood was collected in EDTA anticoagulant and kept at room temperature until processed for flow cytometry. Blood was lysed and samples were stained for extracellular surface markers and intracellular phenotypic and lineage markers by standard methods.” left out

[4] = system: peripheral blood lymphocytes and eosinophils; test: Peripheral blood lymphocyte and eosinophil counts (hematology analyzers) in treated Cynos; type: in vivo, Cynomolgus macaques; details: ~0.044 mg/kg IV x5 daily
Method: as §2

human IL-2Rβ = target: T2, human IL-2Rβ (Homo sapiens, UniProt P14784); test: Biacore binding to human IL-2Rβ-Fc
T2 construct: purchased
T2 sequence (P14784 27-551): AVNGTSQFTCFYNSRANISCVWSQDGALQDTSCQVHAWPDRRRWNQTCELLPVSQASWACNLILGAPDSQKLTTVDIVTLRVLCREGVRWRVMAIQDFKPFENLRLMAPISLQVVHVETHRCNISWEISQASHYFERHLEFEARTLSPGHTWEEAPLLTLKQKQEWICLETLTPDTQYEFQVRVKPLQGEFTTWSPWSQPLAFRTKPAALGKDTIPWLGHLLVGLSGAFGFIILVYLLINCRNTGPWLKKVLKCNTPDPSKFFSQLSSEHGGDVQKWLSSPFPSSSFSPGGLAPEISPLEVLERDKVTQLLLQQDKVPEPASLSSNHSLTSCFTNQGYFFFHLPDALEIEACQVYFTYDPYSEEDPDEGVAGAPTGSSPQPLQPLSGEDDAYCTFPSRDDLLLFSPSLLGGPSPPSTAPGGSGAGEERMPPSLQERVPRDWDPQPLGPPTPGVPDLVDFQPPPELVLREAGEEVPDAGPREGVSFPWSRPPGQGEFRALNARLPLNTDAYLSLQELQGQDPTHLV
Method: as §3

- pSTAT5 EC50, Treg ([1]; whole cynomolgus monkey blood, 30 minutes, Treg): 0.09 ng/mL
- pSTAT5 EC50, CD8 ([2]; additional human blood experiments (Table 29), CD8): 4.94 ng/mL
- pSTAT5 EC50, NK ([2]; additional human blood experiments (Table 29), NK): 17.59 ng/mL
- pSTAT5 EC50, Treg ([2]; additional human blood experiments (Table 29), Treg): 0.047 ng/mL
- EC50 for pSTAT5 in NK cells ([2]; human blood, 30 minutes): 6.01 ng/ml
- EC50 for pSTAT5 in Tregs ([2]; human blood, 30 minutes): 0.09 ng/ml
- pSTAT5 EC50, CD8 ([2]; whole human blood, 30 minutes, CD8+ T cells (Table 27)): 25.69 ng/mL
- EC50 for pSTAT5 in NK cells ([3]; mouse blood): 9,694.74 ng/ml
- EC50 for pSTAT5 in Tregs ([3]; mouse blood): 0.37 ng/ml
- pSTAT5 EC50, CD8 ([3]; mouse blood, CD8+ T cells): 24,040.56 ng/mL
Substance: 13: his-tagged mammalian expressed control human IL-2 (SEQ ID NO:46) [Compound 13]
- Fold Potency Loss vs Human, Treg ([1]; cynomolgus monkey Treg vs human Treg, pSTAT5 EC50): 1
- Fold Potency Loss vs Human, CD8 ([3]; mouse CD8 vs human CD8, pSTAT5 EC50): 935.79
- Fold Potency Loss vs Human, NK ([3]; mouse NK vs human NK, pSTAT5 EC50): 1613.10
- Fold Potency Loss vs Human, Treg ([3]; mouse Treg vs human Treg, pSTAT5 EC50): 4.11

- KD for IL-2Rα compared with 12 (human IL-2Rα): highly comparable KD values
- KD for IL-2Rβ compared with 12 (human IL-2Rβ; independent measurement): highly comparable KD values
Substance: 11: Aldesleukin, recombinant human Interleukin-2 (SEQ ID NO:15) [Compound 11]
- average serum peak IL-6 levels (IL-6): 58.66 pg/mL
- IL-6 (IL-6; Study Day 2.25): 6.79 pg/mL and 9.02 pg/mL and 7.69 pg/mL and 9.95 pg/mL
- IL-6 (IL-6; Study Day 5): 0.75 pg/mL and 0.81 pg/mL and 0.46 pg/mL and 0.48 pg/mL
- IL-6 (IL-6; Study Day 5.25): 3.67 pg/mL and 3.59 pg/mL and 2.42 pg/mL and 4.21 pg/mL
- average serum peak IL-5 levels (IL-5): 117.78 pg/mL
- IL-5 (IL-5; Study Day -3): 0.28 pg/mL and 0.1895 pg/mL and 0.2445 pg/mL and 0.233 pg/mL
- average fold increase in eosinophil counts ([4]; Day 8): 6.92 fold
- average fold increase in lymphocyte counts ([4]; Day 8): 2.77 fold
- average fold increase in eosinophil counts ([4]; Day 10): 5.94 fold
- average fold increase in lymphocyte counts ([4]; Day 10): 2.79 fold
- Lymphocyte Counts ([4]; Study Day 1): 4995 µL⁻¹ and 4670.6 µL⁻¹ and 4845 µL⁻¹ and 4617.6 µL⁻¹
- Lymphocyte Counts ([4]; Study Day 4): 3739.1 µL⁻¹ and 2646 µL⁻¹ and 2703.2 µL⁻¹ and 3034 µL⁻¹
- Lymphocyte Counts ([4]; Study Day 5): 4144.5 µL⁻¹ and 3990 µL⁻¹ and 3784 µL⁻¹
- Lymphocyte Counts ([4]; Study Day 8): 11186 µL⁻¹ and 11088 µL⁻¹ and 8086 µL⁻¹ and 14958 µL⁻¹
- Lymphocyte Counts ([4]; Study Day 9): 10260 µL⁻¹ and 10045 µL⁻¹ and 9548 µL⁻¹ and 13878 µL⁻¹
- Lymphocyte Counts ([4]; Study Day 10): 8316 µL⁻¹ and 10664 µL⁻¹ and 12079 µL⁻¹ and 14885 µL⁻¹
- Lymphocyte Counts ([4]; Study Day 11): 7304 µL⁻¹ and 9640 µL⁻¹ and 8736 µL⁻¹ and 7720 µL⁻¹
- Lymphocyte Counts ([4]; Study Day 12): 5652 µL⁻¹ and 9520 µL⁻¹ and 8325 µL⁻¹ and 7518 µL⁻¹
- Lymphocyte Counts ([4]; Study Day 15): 6720 µL⁻¹ and 9700 µL⁻¹ and 5468.3 µL⁻¹ and 6198.4 µL⁻¹
- Lymphocyte Counts ([4]; Study Day 19): 2385.6 µL⁻¹ and 3965.5 µL⁻¹ and 2067 µL⁻¹ and 3139.5 µL⁻¹
- Lymphocyte Counts ([4]; Study Day -4 (Baseline)): 4032 µL⁻¹ and 4514.4 µL⁻¹ and 4189.5 µL⁻¹ and 3564 µL⁻¹
- Lymphocyte Counts ([4]; Study Day -5 (Baseline)): 4074 µL⁻¹ and 3530.6 µL⁻¹ and 4719 µL⁻¹ and 4376.3 µL⁻¹

- Kd (human IL-2Rβ; Biacore): ~500 nM
Substance: 12: unbiased control recombinant human IL-2 (SEQ ID NO:45) [Compound 12]
